As usually defined, the TGI is the concentration at which net growth stops. Low readings indicate greater sensitivity of the cells, high ones lower sensitivity of the cells.

Structures are written as SMILES.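 All cell lines were grown in 96-well plates and treated with compound for 48 hours. TGI marks complete inhibition of growth.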 Some results are limits rather than exact numbers.

Consider 18 molecules from PubChem BioAssay (NCI).

Among the test systems are OVCAR-5 ovarian; SR leukemia; 786-0 renal; MDA-N; MDA-MB-435; IGROV1 ovarian; HL-60(TB) leukemia.
What all share (assay): DTP human tumour cell line panel, 48 h

Consider `COc1ccc(NC2CC(C)N(C(=O)c3ccccc3)O2)cc1` (configuration not stated), for which the TGI in the experiment with OVCAR-5 ovarian, in the experiment with SR leukemia, with 786-0 renal, in the experiment with MDA-N, with MDA-MB-435 and in the experiment with IGROV1 ovarian was greater than 10 µM in each case. The molecule further came in with a TGI in the experiment on HL-60(TB) leukemia greater than 10 µM.

For the molecule `COP(=O)(OC)/C(=C\c1cn(C(c2ccccc2)(c2ccccc2)c2ccccc2)cn1)NC(C)=O`, the TGI in the experiment with OVCAR-5 ovarian, in the experiment on SR leukemia, in the experiment with 786-0 renal, with MDA-N, with MDA-MB-435 and with IGROV1 ovarian was greater than 100 µM throughout. The molecule further showed a TGI in the experiment on HL-60(TB) leukemia greater than 100 µM.

In the case of `O=c1[nH]c2c(c(=O)[nH]1)SSC2`, the TGI is 32.4 µM with OVCAR-5 ovarian; 2.09 µM in the experiment on SR leukemia; 17.5 µM in the experiment on 786-0 renal; 3.17 µM with MDA-N; 4.67 µM in the experiment on MDA-MB-435; 56.8 µM in the experiment with IGROV1 ovarian. For the same molecule, the TGI in the experiment on HL-60(TB) leukemia was 32.6 µM.

Consider `COc1ccc(N2C(=O)CC(c3c[nH]c4ncccc34)C2=O)cc1` (configuration not stated), for which the TGI in the experiment with OVCAR-5 ovarian is greater than 100 µM; with SR leukemia, greater than 20 µM; in the experiment on 786-0 renal it was 49.7 µM; with MDA-N, 20.1 µM; in the experiment on MDA-MB-435, 19.4 µM; in the experiment on IGROV1 ovarian, 44.6 µM. The molecule further had a TGI in the experiment with HL-60(TB) leukemia greater than 37.4 µM.

`CC(C)C(NCc1c(O)ccc2c(-c3ccccc3)cc(=O)oc12)C(=O)O` (configuration not stated): the TGI in the experiment on OVCAR-5 ovarian, with SR leukemia, in the experiment on 786-0 renal, with MDA-N, with MDA-MB-435 and in the experiment on IGROV1 ovarian was greater than 100 µM in each case. In the experiment with HL-60(TB) leukemia, this molecule gave a TGI greater than 100 µM.

Take `O=c1[nH]n(Cc2ccccc2Cl)c2ccccc12`: the TGI with OVCAR-5 ovarian, with SR leukemia, in the experiment with 786-0 renal, with MDA-N, with MDA-MB-435 and with IGROV1 ovarian was greater than 100 µM each time. This molecule also returned a TGI in the experiment on HL-60(TB) leukemia greater than 100 µM.

As for `C/C=C/[C@H](O[Si](C)(C)C(C)(C)C)[C@@H](O)/C=C/C(=O)OCC`, the TGI in the experiment with OVCAR-5 ovarian stood at 79.5 µM; with SR leukemia it was 44.1 µM; in the experiment with 786-0 renal, 41.5 µM; with MDA-N, 42.8 µM; with MDA-MB-435, 38.5 µM; in the experiment with IGROV1 ovarian, 50.4 µM.

On to `CCOC(=O)c1c(N2CCCC2)[nH]c(=O)c(C(c2cccs2)c2c(O)c(C(=O)OCC)c(N3CCCC3)[nH]c2=O)c1O`, for which the TGI in the experiment with OVCAR-5 ovarian, in the experiment with SR leukemia, in the experiment with 786-0 renal, in the experiment on MDA-N and in the experiment on MDA-MB-435 was greater than 100 µM throughout.

As for `CCc1cc2c(oc3cc(C)ccc32)c(=O)n1C`, the TGI in the experiment with OVCAR-5 ovarian, with SR leukemia, in the experiment on 786-0 renal, with MDA-N, in the experiment on MDA-MB-435 and in the experiment with IGROV1 ovarian was greater than 10 µM each time. Also, in the experiment with HL-60(TB) leukemia, the TGI is greater than 10 µM.

In the case of `CCOC(=O)C(=O)C(CCC(=O)c1ccc2ccccc2c1O)C(=O)OCC` (configuration not stated), the TGI with OVCAR-5 ovarian, in the experiment with SR leukemia, in the experiment on 786-0 renal, in the experiment with MDA-N, with MDA-MB-435 and in the experiment with IGROV1 ovarian was greater than 100 µM each time. For the same molecule, the TGI with HL-60(TB) leukemia was greater than 100 µM.

Regarding `C/C(=N\Nc1nc2ccccc2s1)c1cc(C)ncn1`, the TGI is greater than 68.2 µM in the experiment on OVCAR-5 ovarian; 9.82 µM in the experiment on SR leukemia; greater than 47.3 µM in the experiment on 786-0 renal; 47.3 µM in the experiment on MDA-N; greater than 54.1 µM in the experiment with MDA-MB-435; 20.5 µM with IGROV1 ovarian. Moreover, in the experiment with HL-60(TB) leukemia, the TGI is greater than 100 µM.

In the case of `CC1=NN(C(=O)CC(=O)Nc2cccc(Cl)c2)C(=O)C1N=Nc1ccc(C(=O)O)cc1` (configuration not stated), the TGI in the experiment on OVCAR-5 ovarian, in the experiment with SR leukemia, in the experiment on 786-0 renal, in the experiment on MDA-N, in the experiment with MDA-MB-435 and in the experiment with IGROV1 ovarian was greater than 100 µM in each case. The molecule further returned a TGI with HL-60(TB) leukemia greater than 100 µM.

In the case of `CC1(C)[C@H]2Cc3cc(-c4cc5c(cn4)[C@@H]4C[C@H]([C@@H]5[C@@H]5c6cc(-c7cc8c(cn7)[C@@H]7C[C@H](C8)C7(C)C)ncc6[C@@H]6C[C@H]5C6(C)C)C4(C)C)ncc3[C@@H]1C2`, the TGI in the experiment on OVCAR-5 ovarian, with SR leukemia, in the experiment on 786-0 renal, in the experiment on MDA-N, in the experiment with MDA-MB-435 and in the experiment on IGROV1 ovarian was greater than 100 µM throughout. In addition, the TGI in the experiment with HL-60(TB) leukemia was greater than 100 µM.

On to `FC1=C2CCCCCC2SC1(F)F` (configuration not stated), for which the TGI in the experiment on OVCAR-5 ovarian is greater than 100 µM; with SR leukemia it was 53.6 µM; in the experiment with 786-0 renal, greater than 100 µM; in the experiment with MDA-N, greater than 100 µM; in the experiment on MDA-MB-435, 70.7 µM; in the experiment with IGROV1 ovarian, greater than 100 µM. In addition, the TGI with HL-60(TB) leukemia was determined as 33.9 µM.

As to `COc1cc(C(=O)Oc2c(C#N)sc3c2c(=O)n(-c2ccccc2)c(=S)n3-c2ccccc2)cc(OC)c1OC`, the TGI is 46.7 µM in the experiment on OVCAR-5 ovarian; greater than 100 µM with SR leukemia; greater than 100 µM in the experiment on 786-0 renal; greater than 100 µM in the experiment on MDA-N; 36.8 µM in the experiment with MDA-MB-435; 41 µM in the experiment on IGROV1 ovarian. Moreover, the TGI with HL-60(TB) leukemia is 41.3 µM.

Consider `CCOC(=O)/C(C#N)=C/c1ccc2c(c1)CC1(C2)Cc2cc(CC)c(C(C)O)cc2C1` (configuration not stated), for which the TGI is greater than 93.1 µM in the experiment with OVCAR-5 ovarian; greater than 28.9 µM in the experiment with SR leukemia; 39 µM in the experiment with 786-0 renal; 5.16 µM in the experiment on MDA-N; 4.83 µM in the experiment on MDA-MB-435; 57 µM in the experiment with IGROV1 ovarian. In the experiment with HL-60(TB) leukemia, this molecule yielded a TGI of 8.51 µM.

Turning to `Cc1c(C)c(S(=O)(=O)N(CCCCCON)OCCCN)c(C)c2c1OC(C)(C)CC2`, the TGI in the experiment with OVCAR-5 ovarian was 28.2 µM; in the experiment on SR leukemia it was greater than 21.7 µM; in the experiment with 786-0 renal, greater than 100 µM; with MDA-N it was 27.3 µM; in the experiment with MDA-MB-435, 24.8 µM; in the experiment with IGROV1 ovarian, 23.4 µM. The TGI with HL-60(TB) leukemia stood at 17.3 µM.

As for `CCOP(=O)(OCC)/C(C#N)=C/c1ccnc2ccccc12`, the total growth inhibition concentration (TGI) was 51 µM with OVCAR-5 ovarian; 73.6 µM with SR leukemia; 51.2 µM in the experiment with 786-0 renal; 42.2 µM in the experiment with MDA-N; 31.3 µM in the experiment on MDA-MB-435; greater than 100 µM in the experiment on IGROV1 ovarian.
